Laboratory results from article PMC6688997 (Nature Communications, 2019).
pIC50: −log10 of the molar value. “And” between values parts separate entries of the source, which are not always exact repeats. Identical values can stand only once. Like-named read-outs stand apart in the source and are kept apart here.

Assays:
[1] = tested on: Ba/F3-CD74-ROS1 cells (WT); assay: CellTiter-Glo cell viability assay; type: cell-based, murine; settings: Mus musculus
[2] = tested on: Ba/F3-CD74-ROS1 L1951R cells; assay: CellTiter-Glo cell viability assay; type: cell-based, murine; settings: Mus musculus
[3] = tested on: Ba/F3-CD74-ROS1 L2026M cells; assay: CellTiter-Glo cell viability assay; type: cell-based, murine; settings: Mus musculus
[4] = tested on: Ba/F3-CD74-ROS1 G2032R cells; assay: CellTiter-Glo cell viability assay; type: cell-based, murine; settings: Mus musculus
[5] = tested on: Ba/F3-CD74-ROS1 D2033N cells; assay: CellTiter-Glo cell viability assay; type: cell-based, murine; settings: Mus musculus
[6] = tested on: parental Ba/F3 cells (with IL-3); assay: CellTiter-Glo cell viability assay; type: cell-based, murine; settings: Mus musculus
[7] = tested on: Ba/F3-TPM3-NTRK1 cells (WT); assay: CellTiter-Glo cell viability assay; type: cell-based, murine; settings: Mus musculus, 72 h
[8] = tested on: SLC34A2-ROS1-G2032R overexpressing HCC78xe3 cells; assay: Cell viability in 3D culture, CellTiter-Glo; type: cell-based; settings: 72 h
[9] = tested on: phospho-ROS1 in JFCR-165 cells; assay: Immunoblot of ROS1 autophosphorylation; type: cell-based, human; settings: 6 h
Protocol: (§1) Lysates were prepared using 1x SDS lysis buffer (1% SDS and 10% glycerol in 100 mM Tris–HCl [pH 7.5])[27]. […] All the primary antibody was used 1:1000 dilution for immunoblot analysis.

[10] = tested on: phospho-ROS1 in JFCR-168 cells; assay: Immunoblot of ROS1 autophosphorylation; type: cell-based, human; settings: 6 h
Protocol: as §1

[11] = tested on: phospho-ROS1 in MGH193-1B cells; assay: Immunoblot of ROS1 autophosphorylation; type: cell-based, human; settings: 6 h
Protocol: as §1

[12] = tested on: Ba/F3-CD74-ROS1-WT xenograft; type: in vivo, mouse; settings: for Tumor volume (average / SE): ROS1-WT xenograft, 100 mg/kg po
[13] = tested on: HCC78xe3-SLC34A2-ROS1-WT xenograft; type: in vivo, mouse; parameters: Tumor volume LWW/2: unit not given here
[14] = tested on: HCC78xe3-SLC34A2-ROS1-G2032R xenograft; type: in vivo, mouse
[15] = Body weight of Ba/F3-CD74-ROS1-WT xenograft mice; type: in vivo, mouse; settings: Crizotinib 100 mg/kg po; for Body Weight Change(%) (average / SD): N 6
[16] = tested on: phospho-ROS1 in HCC78xe3-SLC34A2-ROS1-G2032R xenograft tumors; assay: Immunoblot of xenograft tumors; type: in vivo, mouse; settings: 3 days treatment
[17] = tested on: ROS1-rearranged NSCLC patients; settings: cited from earlier work
[18] = Crizotinib 100 mg/kg po; for Body Weight Change(%) (average / SD): N 6
[19] = Crizotinib 100mg/kg, day 0, single mouse, in mm³
[20] = Crizotinib 100mg/kg, day 3, single mouse, in mm³
[21] = Crizotinib 100mg/kg, day 6, single mouse, in mm³
[22] = Crizotinib 100mg/kg, day 9, single mouse, in mm³
[23] = Crizotinib 100mg/kg, day 14, single mouse, in mm³
[24] = Crizotinib 100mg/kg, day 17, single mouse, in mm³
[25] = Crizotinib 100mg/kg, day 25, single mouse, in mm³
[26] = Crizotinib 100mg/kg, day 28, single mouse, in mm³
[27] = Crizotinib 100mg/kg, day 35, single mouse, in mm³
[28] = Crizotinib 100mg/kg, day 38, single mouse, in mm³
[29] = Crizotinib 100mg/kg, day 43, single mouse, in mm³
[30] = Crizotinib 100mg/kg, day 48, single mouse, in mm³
[31] = Crizotinib 100mg/kg, day 52, single mouse, in mm³
[32] = Crizotinib 100mg/kg, day 55, single mouse, in mm³

## C[C@@H](Oc1cc(-c2cnn(C3CCNCC3)c2)cnc1N)c1c(Cl)ccc(F)c1Cl [crizotinib, reference compound]
[1]; 72 h
  pIC50: […]
[1]; source data sheet
  GI50: […]
[2]; 72 h
  pIC50: […]
[2]; source data sheet
  GI50: […]
[3]
  GI50: […]
[3]; 72 h
  pIC50: […]
[4]; 72 h
  pIC50: […]
[4]; source data sheet
  GI50: […]
[5]
  GI50: […]
[6]; BaF3, 72 h
  pIC50: […]
[6]; BaF3, source data sheet
  GI50: […]
[7]
  pIC50: 7.67
[8]
  Cell growth inhibition: much higher than those to WT cells
[9]
  Inhibition of autophosphorylation of ROS1: potently inhibited
[10]
  Inhibition of autophosphorylation of ROS1: potently inhibited
[11]
  Inhibition of autophosphorylation of ROS1: potently inhibited
[12]; 100 mg/kg once daily oral, 4 days
  Tumor shrinkage: induced tumor shrinkage
[12]; day 0, N 6
  Tumor volume (average / SE): […]
[12]; day 2, N 6
  Tumor volume (average / SE): 151 mm3
[12]; day 4, N 6
  Tumor volume (average / SE): 44 mm3
[13]; [19]
  Tumor volume LWW/2: […]
[13]; [20]
  Tumor volume LWW/2: […]
[13]; [21]
  Tumor volume LWW/2: 67.8 and 77.3
[13]; [22]
  Tumor volume LWW/2: 39.9
[13]; [23]
  Tumor volume LWW/2: […]
[13]; [24]
  Tumor volume LWW/2: […]
[13]; [25]
  Tumor volume LWW/2: […]
[13]; [26]
  Tumor volume LWW/2: […]
[13]; [27]
  Tumor volume LWW/2: 8.7
[13]; [28]
  Tumor volume LWW/2: […]
[13]; [29]
  Tumor volume LWW/2: 4.9
[13]; [30]
  Tumor volume LWW/2: 7.2
[13]; [31]
  Tumor volume LWW/2: […]
[13]; [32]
  Tumor volume LWW/2: […]
[13]; HCC78_Xe3_WT xenograft, BALB/c-nu mice, Crizotinib 50mg/kg, day 25, individual mice No. 7-12
  Tumor volume LWW/2: 44.9 and 36.7 and 19.6
[13]; HCC78_Xe3_WT xenograft, BALB/c-nu mice, Crizotinib 50mg/kg, day 43, individual mice No. 7-12
  Tumor volume LWW/2: […]
[14]; 50 and 100 mg/kg once daily oral
  Tumor growth inhibition: highly resistant to crizotinib
[14]; [19]
  Tumor volume LWW/2: […]
[14]; [20]
  Tumor volume LWW/2: […]
[14]; [21]
  Tumor volume LWW/2: […]
[14]; [22]
  Tumor volume LWW/2: […]
[14]; [23]
  Tumor volume LWW/2: […]
[14]; [24]
  Tumor volume LWW/2: […]
[14]; Crizotinib 100mg/kg, day 21, single mouse, in mm³
  Tumor volume LWW/2: […]
[14]; [25]
  Tumor volume LWW/2: […]
[14]; [26]
  Tumor volume LWW/2: 247.6 and 347.9
[14]; Crizotinib 100mg/kg, day 31, single mouse, in mm³
  Tumor volume LWW/2: 309.9 and 336.1
[14]; [27]
  Tumor volume LWW/2: […]
[14]; [28]
  Tumor volume LWW/2: […]
[14]; [29]
  Tumor volume LWW/2: […]
[14]; [30]
  Tumor volume LWW/2: 745.2 and 699.2
[14]; [31]
  Tumor volume LWW/2: […]
[14]; [32]
  Tumor volume LWW/2: […]
[14]; HCC78_Xe3_G2032R xenograft, BALB/c-nu mice, Crizotinib 50mg/kg, day 6, individual mice No. 7-12
  Tumor volume LWW/2: 127.8 and 126.6
[14]; HCC78_Xe3_G2032R xenograft, BALB/c-nu mice, Crizotinib 50mg/kg, day 17, individual mice No. 7-12
  Tumor volume LWW/2: […]
[14]; Kaplan–Meier, 50 and 100 mg/kg
  Survival: did not show any superiority to the control group
[15]; day 0, average
  Body Weight Change(%) (average / SD): 0.0%
[15]; day 0, individual animals
  Body Weight Change(%) (individual): 0%
[15]; day 1, average
  Body Weight Change(%) (average / SD): […]
[15]; day 1, individual animals
  Body Weight Change(%) (individual): […]
[15]; day 2, average
  Body Weight Change(%) (average / SD): […]
[15]; day 2, individual animals
  Body Weight Change(%) (individual): […]
[15]; day 3, average
  Body Weight Change(%) (average / SD): […]
[15]; day 3, individual animals
  Body Weight Change(%) (individual): […]
[15]; day 4, average
  Body Weight Change(%) (average / SD): -4.4%
[15]; day 4, individual animals
  Body Weight Change(%) (individual): […]
[16]
  Inhibition of phospho-ROS1 in tumors: […]
[17]
  Overall response rate: 72%
[18]; day 0, average
  Body Weight Change(%) (average / SD): 0.0%
[18]; day 0, individual animals
  Body Weight Change(%) (individual): 0%
[18]; day 1, average
  Body Weight Change(%) (average / SD): […]
[18]; day 2, average
  Body Weight Change(%) (average / SD): -0.4%
[18]; day 3, average
  Body Weight Change(%) (average / SD): […]
[18]; day 4, average
  Body Weight Change(%) (average / SD): […]
